The text below walks through data of ChEMBL document CHEMBL4265885, “New piperidine-based derivatives as sigma receptor ligands. Synthesis and pharmacological evaluation” (Bioorg Med Chem Lett, 2018).

pKi: −log10 of the molar value.

One assay has as its system SH-SY5Y. In words: Cytotoxicity against human SH-SY5Y cells at 50 uM after 48 hrs by MTT assay. It counts as functional. In general terms: Formazan colour is commonly taken as a measure of viable cells.
Another assay deals with PANC-1. The assay is described as follows: Cytotoxicity against human PANC1 cells at 50 uM after 48 hrs by MTT assay. It counts as functional.
For assay [1], the target named is Sigma non-opioid intracellular receptor 1 (Rattus norvegicus, UniProt Q9R0C9). The assay is described as follows: Displacement of [3H]-(+)-pentazocine from sigma1 receptor in rat liver membranes after 120 mins by liquid scintillation counting. It counts as cell membranes, Membrane.
The target in assay [2] is T1, Sigma intracellular receptor 2 (Rattus norvegicus, UniProt Q5U3Y7).
T1 sequence (Q5U3Y7 whole entry): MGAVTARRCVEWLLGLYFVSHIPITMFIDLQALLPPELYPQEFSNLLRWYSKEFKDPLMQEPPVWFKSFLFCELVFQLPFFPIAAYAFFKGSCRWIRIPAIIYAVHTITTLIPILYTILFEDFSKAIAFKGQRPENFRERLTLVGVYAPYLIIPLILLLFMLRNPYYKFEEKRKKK
In words: Displacement of [3H]-DTG from sigma2 receptor in rat liver membranes after 120 mins by liquid scintillation counting. It counts as cell membranes, Membrane.

The species entered for another assay is Rattus norvegicus. In words: Selectivity index, ratio of Ki for sigma2 receptor in rat liver membranes to Ki for sigma1 receptor in rat liver membranes. It counts as cell membranes.

Chain of Sigma non-opioid intracellular receptor 1 (Q9R0C9 whole entry): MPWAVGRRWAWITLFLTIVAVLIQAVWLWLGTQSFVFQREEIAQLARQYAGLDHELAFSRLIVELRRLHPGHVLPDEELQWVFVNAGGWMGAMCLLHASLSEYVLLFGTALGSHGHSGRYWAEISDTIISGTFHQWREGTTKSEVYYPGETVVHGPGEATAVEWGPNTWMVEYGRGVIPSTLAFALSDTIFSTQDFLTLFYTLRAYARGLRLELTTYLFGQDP

In the case of `Cc1ccccc1NC(=N)Nc1ccccc1C` [DITOLYLGUANIDINE], the Activity in the assay with SH-SY5Y and in the assay on PANC-1 was 80% in each case.

Turning to `c1ccc(CCN2CCCCC2)cc1`, the Activity in the assay on SH-SY5Y and with PANC-1 was 21% each time.

In general, pKi refers to the Ki on a negative log10 scale, so that one unit is a factor of ten. `CCCN(CC1CCN(Cc2ccccc2)CC1)C(C)=O` showed a pKi in assay [1] of 7.43.

In the case of `Fc1ccc(-n2cc(CCCCN3CCC4(CC3)OCc3ccccc34)c3ccccc32)cc1` [SIRAMESINE], the Activity with SH-SY5Y and in the assay with PANC-1 was 90% each time.

As for `CC(C)=CCN1CCC2(C)c3cc(O)ccc3CC1C2C` (stereo unspecified) [PENTAZOCINE], the Activity with SH-SY5Y and in the assay with PANC-1 was 5% in each case.

Take `O=C(CCCN1CCC(O)(c2ccc(Cl)cc2)CC1)c1ccc(F)cc1` [HALOPERIDOL]: the Activity in the assay on SH-SY5Y and in the assay on PANC-1 was 66% each time.

For `CCCN(CCC)CCc1ccc(OC)c(OCCc2ccccc2)c1`, the Activity with SH-SY5Y and with PANC-1 was 92% throughout.

Turning to `CCN(CC1CCN(Cc2ccccc2)CC1)C(C)=O`, the pKi in assay [1] was 7.01; in assay [2], 6.37. Further, the Ratio Ki in the assay listed under Rattus norvegicus was found to be 4.3.
